# Results published in ChEMBL document CHEMBL1151044, “5,7-Diphenyl-3-ureidohexahydroazepin-2-ones as Cholecystokinin-B receptor ligands” (Bioorg Med Chem Lett, 1994).
# Biological target: T1, Cholecystokinin receptor type A (Cavia porcellus, UniProt Q63931)
# T1 sequence (Q63931 whole entry): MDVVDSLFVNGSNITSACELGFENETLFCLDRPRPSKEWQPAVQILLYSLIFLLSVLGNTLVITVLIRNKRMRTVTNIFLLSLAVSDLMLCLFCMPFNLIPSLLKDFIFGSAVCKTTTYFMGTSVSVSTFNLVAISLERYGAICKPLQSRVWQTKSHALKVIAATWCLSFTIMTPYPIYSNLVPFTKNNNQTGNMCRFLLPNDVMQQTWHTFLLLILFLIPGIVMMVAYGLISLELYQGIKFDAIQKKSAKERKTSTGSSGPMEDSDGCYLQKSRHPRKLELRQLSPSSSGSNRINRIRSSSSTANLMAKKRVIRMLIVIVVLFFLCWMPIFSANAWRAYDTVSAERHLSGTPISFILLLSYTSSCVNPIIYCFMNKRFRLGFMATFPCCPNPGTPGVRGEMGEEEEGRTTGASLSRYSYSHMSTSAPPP
# Experiment: Inhibitory activity against cholecystokinin-A (CCK-A) receptor in pancreas of guinea pig.
row,Compound,IC50 [nM]
1,Cc1cccc(NC(=O)N[C@@H]2C[C@H](c3ccccc3)C[C@H](c3cccc(C)c3)N(CC(=O)NC(C)(C)C)C2=O)c1,1.6
2,Cc1ccccc1[C@@H]1C[C@H](c2ccccc2)N(CC(=O)NC(C)(C)C)C(=O)[C@H](NC(=O)Nc2cccc(C(F)(F)F)c2)C1,2500
3,CCc1ccccc1[C@@H]1C[C@H](c2ccccc2)N(CC(=O)NC(C)(C)C)C(=O)[C@H](NC(=O)Nc2cccc(C)c2)C1,810
4,Cc1ccccc1[C@@H]1C[C@H](c2ccccc2)N(CC(=O)NC(C)(C)C)C(=O)[C@H](NC(=O)Nc2cccc(F)c2)C1,1.8
5,Cc1cccc(NC(=O)N[C@@H]2C[C@H](c3ccccc3C)C[C@H](c3ccccc3)N(CC(=O)Nc3ccc(Cl)cc3)C2=O)c1,> 10
6,Cc1cccc(NC(=O)N[C@H]2C[C@H](c3ccccc3)C[C@H](c3ccccc3)N(CC(=O)NC(C)(C)C)C2=O)c1,10
7,Cc1ccc([C@H]2C[C@@H](c3ccccc3)C[C@@H](NC(=O)Nc3cccc(C)c3)C(=O)N2CC(=O)NC(C)(C)C)cc1,970
8,Cc1cccc(NC(=O)N[C@@H]2C[C@H](c3ccccc3C)C[C@H](c3ccccc3)N(CC(=O)Nc3ccccc3C)C2=O)c1,1.1
9,Cc1cccc(NC(=O)N[C@@H]2C[C@H](c3cccc(C)c3)C[C@H](c3ccccc3)N(CC(=O)NC(C)(C)C)C2=O)c1,1.3
10,COc1ccc(NC(=O)N[C@@H]2C[C@H](c3ccccc3C)C[C@H](c3ccccc3)N(CC(=O)NC(C)(C)C)C2=O)cc1,2.2
11,Cc1ccccc1[C@@H]1C[C@H](c2ccccc2)N(CC(=O)NC(C)(C)C)C(=O)[C@H](NC(=O)Nc2cccc([N+](=O)[O-])c2)C1,> 10
12,Cc1cccc(NC(=O)N[C@@H]2C[C@H](c3ccccc3)C[C@H](c3cccc(F)c3)N(CC(=O)NC(C)(C)C)C2=O)c1,1
13,Cc1cccc(NC(=O)N[C@@H]2C[C@H](c3ccccc3)C[C@H](c3ccc(F)cc3)N(CC(=O)NC(C)(C)C)C2=O)c1,2.8
14,Cc1ccccc1[C@@H]1C[C@H](c2ccccc2)N(CC(=O)NC(C)(C)C)C(=O)[C@H](NC(=O)Nc2ccc(Cl)cc2)C1,> 10
15,Cc1cccc(NC(=O)N[C@@H]2C[C@H](c3ccccc3C)C[C@H](c3ccccc3)N(CC(=O)NC(C(C)(C)C)C(C)(C)C)C2=O)c1,> 10
16,Cc1cccc(NC(=O)N[C@@H]2C[C@H](c3ccc(F)cc3)C[C@H](c3ccccc3)N(CC(=O)NC(C)(C)C)C2=O)c1,700
17,Cc1ccc([C@@H]2C[C@H](c3ccccc3)N(CC(=O)NC(C)(C)C)C(=O)[C@H](NC(=O)Nc3cccc(C)c3)C2)cc1,1.1
18,COc1ccccc1[C@@H]1C[C@H](c2ccccc2)N(CC(=O)NC(C)(C)C)C(=O)[C@H](NC(=O)Nc2cccc(C)c2)C1,750
19,Cc1cccc(NC(=O)N[C@@H]2C[C@H](c3ccccc3)C[C@H](c3ccccc3)N(CC(=O)NC(C)(C)C)C2=O)c1,823

# Now from value to compound:
row,IC50 [nM],Compound
1,560,Cc1cccc(NC(=O)N[C@@H]2C[C@H](c3ccccc3C)C[C@H](c3ccccc3)N(CC(=O)NC(C)C)C2=O)c1
2,580,Cc1cccc(NC(=O)N[C@@H]2C[C@H](c3ccccc3C)C[C@H](c3ccccc3)N(CC(=O)NC(C)(C)C)C2=O)c1 (stereo in doubt; 10i)
3,> 10,CCc1cccc(NC(=O)N[C@@H]2C[C@H](c3ccccc3C)C[C@H](c3ccccc3)N(CC(=O)NC3(C)CCCCC3)C2=O)c1
4,930,Cc1cccc(NC(=O)N[C@@H]2C[C@H](c3ccccc3C)C[C@H](c3ccccc3)N(CC(=O)NC(C)(C)C)C2=O)c1 (stereo in doubt; (-)-10i)
5,> 10,Cc1cccc(NC(=O)N[C@@H]2C[C@H](c3ccccc3C)C[C@H](c3ccccc3)N(CC(=O)Nc3cccc(Cl)c3)C2=O)c1
6,> 10,Cc1ccc(NC(=O)CN2C(=O)[C@H](NC(=O)Nc3cccc(C)c3)C[C@H](c3ccccc3C)C[C@@H]2c2ccccc2)cc1
7,1.1,Cc1cccc(NC(=O)N[C@@H]2C[C@H](c3ccccc3C)C[C@H](c3ccccc3)N(CC(=O)Nc3ccccc3Cl)C2=O)c1
8,610,Cc1cccc(NC(=O)N[C@@H]2C[C@H](c3ccccc3C)C[C@H](c3ccccc3)N(CC(=O)NC(C)(C)C)C2=O)c1 (stereo in doubt; (+)-10i)
9,4.4,Cc1cccc(NC(=O)N[C@@H]2C[C@H](c3ccccc3C)C[C@H](c3ccccc3)N(CC(=O)NC3(C)CCCCC3)C2=O)c1
